Common to all, as to assay type: cell-based
In one assay the target is T1, human TLR7 (Homo sapiens, UniProt Q9NYK1).
T1 construct: host or cells: HEK-Blue cells
T1 sequence (Q9NYK1 27-1049): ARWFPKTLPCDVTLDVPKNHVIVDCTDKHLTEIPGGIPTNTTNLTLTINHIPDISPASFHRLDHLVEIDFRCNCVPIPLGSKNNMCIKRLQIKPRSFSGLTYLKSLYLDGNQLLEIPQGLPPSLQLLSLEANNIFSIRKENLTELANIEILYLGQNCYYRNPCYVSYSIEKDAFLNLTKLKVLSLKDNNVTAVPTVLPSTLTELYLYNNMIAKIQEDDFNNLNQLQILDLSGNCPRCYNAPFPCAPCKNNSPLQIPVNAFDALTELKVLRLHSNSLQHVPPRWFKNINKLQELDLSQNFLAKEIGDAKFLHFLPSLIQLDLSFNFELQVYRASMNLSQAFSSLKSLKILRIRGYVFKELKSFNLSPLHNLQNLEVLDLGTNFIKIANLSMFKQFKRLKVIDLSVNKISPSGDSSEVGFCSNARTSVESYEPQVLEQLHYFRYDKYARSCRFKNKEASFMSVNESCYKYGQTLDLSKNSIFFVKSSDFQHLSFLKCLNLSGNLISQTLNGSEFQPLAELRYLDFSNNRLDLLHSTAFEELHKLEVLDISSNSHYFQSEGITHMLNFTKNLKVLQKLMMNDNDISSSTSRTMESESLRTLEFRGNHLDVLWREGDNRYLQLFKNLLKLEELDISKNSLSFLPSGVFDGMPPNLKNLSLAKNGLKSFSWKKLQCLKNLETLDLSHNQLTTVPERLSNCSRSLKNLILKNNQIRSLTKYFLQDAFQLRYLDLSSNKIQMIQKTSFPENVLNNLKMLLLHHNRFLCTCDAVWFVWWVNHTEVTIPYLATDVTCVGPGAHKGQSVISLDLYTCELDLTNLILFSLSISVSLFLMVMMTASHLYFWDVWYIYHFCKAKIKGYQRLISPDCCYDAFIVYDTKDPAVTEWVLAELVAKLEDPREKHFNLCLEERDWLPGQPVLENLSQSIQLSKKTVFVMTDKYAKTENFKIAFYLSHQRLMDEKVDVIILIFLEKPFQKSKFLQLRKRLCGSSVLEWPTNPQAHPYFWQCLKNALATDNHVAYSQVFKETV
The assay is described as follows: TLR7 inhibition reporter assay (HEK-Blue, SEAP). To be noted: HEK-Blue cells overexpressing human TLR7, gardiquimod 7.5 μM, 22 hour incubation. As to the method: (§1) TLR7/8/9 Inhibition Reporter Assays
(§2) HEK-Blue™-cells (Invivogen) overexpressing human TLR7, TLR8 or TLR9 receptors were used for screening inhibitors of these receptors using an inducible SEAP (secreted embryonic alkaline phosphatase) reporter gene under the control of the IFN-β minimal promoter fused to five NF-κB and AP-1-binding sites. Briefly, cells are seeded into Greiner 384 well plates (15000 cells per well for TLR7, 20,000 for TLR8 and 25,000 for TLR9) and then treated with test compounds in DMSO to yield a final dose response concentration range of 0.05 nM-50 μM. After a 30 minute compound pre-treatment at room temperature, the cells are then stimulated with a TLR7 ligand (gardiquimod at a final concentration of 7.5 μM), TLR8 ligand (R848 at a final concentration of 15.9 μM) or TLR9 ligand (ODN2006 at a final concentration of 5 nM) to activate NF-κB and AP-1 which induce the production of SEAP. After a 22 hour incubation at 37° C., 5% CO2, SEAP levels are determined with the addition of HEK-Blue™ Detection reagent (Invivogen), a cell culture medium that allows for detection of SEAP, according to manufacturer's specifications. The percent inhibition is determined as the % reduction in the HEK-Blue signal present in wells treated with agonist plus DMSO alone compared to wells treated with a known inhibitor.
Background: A reporter such as luciferase makes a cellular process visible.

For another assay, the target named is T2, human TLR8 (Homo sapiens, UniProt Q9NR97).
T2 construct: host or cells: HEK-Blue cells
T2 sequence (Q9NR97 27-1041): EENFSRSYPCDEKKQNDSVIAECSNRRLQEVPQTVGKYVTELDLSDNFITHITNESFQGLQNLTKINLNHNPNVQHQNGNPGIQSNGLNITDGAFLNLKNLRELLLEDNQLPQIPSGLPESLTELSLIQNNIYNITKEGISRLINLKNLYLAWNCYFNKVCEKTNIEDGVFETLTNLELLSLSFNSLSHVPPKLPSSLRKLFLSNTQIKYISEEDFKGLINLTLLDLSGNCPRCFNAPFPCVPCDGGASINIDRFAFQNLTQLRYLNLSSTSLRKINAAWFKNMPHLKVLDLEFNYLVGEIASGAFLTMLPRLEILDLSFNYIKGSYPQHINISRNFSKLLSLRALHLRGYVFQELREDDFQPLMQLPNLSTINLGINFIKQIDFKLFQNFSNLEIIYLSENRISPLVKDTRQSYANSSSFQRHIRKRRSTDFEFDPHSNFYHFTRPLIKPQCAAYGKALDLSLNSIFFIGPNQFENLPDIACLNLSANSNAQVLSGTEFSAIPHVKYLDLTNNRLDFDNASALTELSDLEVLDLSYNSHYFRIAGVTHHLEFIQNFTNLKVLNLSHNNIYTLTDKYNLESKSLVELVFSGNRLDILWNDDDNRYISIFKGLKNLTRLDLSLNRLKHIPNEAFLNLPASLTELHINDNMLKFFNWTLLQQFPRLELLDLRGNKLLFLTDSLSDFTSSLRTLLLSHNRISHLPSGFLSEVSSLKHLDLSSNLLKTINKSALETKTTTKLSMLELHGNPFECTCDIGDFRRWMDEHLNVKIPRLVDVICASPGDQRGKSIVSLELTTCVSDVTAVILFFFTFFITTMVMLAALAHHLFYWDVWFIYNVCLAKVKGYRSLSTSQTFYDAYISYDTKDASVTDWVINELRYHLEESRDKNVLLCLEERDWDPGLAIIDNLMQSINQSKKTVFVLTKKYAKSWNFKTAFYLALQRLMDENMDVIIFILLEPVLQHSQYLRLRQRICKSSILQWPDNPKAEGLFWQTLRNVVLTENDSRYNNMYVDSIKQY
Description: TLR8 inhibition reporter assay (HEK-Blue, SEAP). To be noted: HEK-Blue cells overexpressing human TLR8, R848 15.9 μM, 22 hour incubation. Here is the method:
as §1, §2

Another assay addresses T3, human TLR9 (Homo sapiens, UniProt Q9NR96).
T3 construct: host or cells: HEK-Blue cells
T3 sequence (Q9NR96 26-1032): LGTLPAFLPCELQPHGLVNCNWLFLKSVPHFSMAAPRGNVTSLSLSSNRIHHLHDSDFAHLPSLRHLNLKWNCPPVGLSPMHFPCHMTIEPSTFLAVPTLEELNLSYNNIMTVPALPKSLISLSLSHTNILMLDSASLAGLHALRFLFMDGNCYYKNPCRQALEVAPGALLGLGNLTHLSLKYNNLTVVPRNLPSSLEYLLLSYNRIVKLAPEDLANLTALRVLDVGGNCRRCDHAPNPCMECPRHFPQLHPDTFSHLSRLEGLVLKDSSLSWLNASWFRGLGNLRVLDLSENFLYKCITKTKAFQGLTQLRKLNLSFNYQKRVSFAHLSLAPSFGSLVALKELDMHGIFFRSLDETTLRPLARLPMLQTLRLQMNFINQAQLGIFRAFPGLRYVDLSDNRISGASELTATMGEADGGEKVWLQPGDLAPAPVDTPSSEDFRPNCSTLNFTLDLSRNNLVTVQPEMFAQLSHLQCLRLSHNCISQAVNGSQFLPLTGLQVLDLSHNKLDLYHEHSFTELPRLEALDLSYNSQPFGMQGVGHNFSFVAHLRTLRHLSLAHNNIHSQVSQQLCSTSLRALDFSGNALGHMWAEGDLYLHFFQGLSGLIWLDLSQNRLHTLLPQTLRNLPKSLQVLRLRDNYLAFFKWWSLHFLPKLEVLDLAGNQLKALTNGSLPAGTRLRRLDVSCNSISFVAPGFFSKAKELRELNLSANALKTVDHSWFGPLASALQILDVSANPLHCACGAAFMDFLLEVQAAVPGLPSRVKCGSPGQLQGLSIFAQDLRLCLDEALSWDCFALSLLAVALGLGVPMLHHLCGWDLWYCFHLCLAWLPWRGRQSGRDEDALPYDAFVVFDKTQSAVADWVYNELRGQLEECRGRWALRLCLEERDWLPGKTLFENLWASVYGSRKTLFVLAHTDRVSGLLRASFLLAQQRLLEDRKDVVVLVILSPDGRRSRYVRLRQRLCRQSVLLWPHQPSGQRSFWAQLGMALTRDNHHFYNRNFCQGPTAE
Description: TLR9 inhibition reporter assay (HEK-Blue, SEAP). To be noted: HEK-Blue cells overexpressing human TLR9, ODN2006 5 nM, 22 hour incubation. Here is the method: as §1, §2

What is called IC50 is the point on the concentration scale where inhibition reaches its midpoint. A low value points to higher potency. As to “1-(4-(3-isopropyl-2-(8-methoxy-5-methyl-[1,2,4]triazolo[4,3-a)pyridin-6-yl)-1H-indol-5-yl)piperidin-1-yl)-2-methylpropan-2-ol [Example 62]”, the IC50 was determined as 1.2 nM against human TLR7, 6.4 nM at human TLR8 and 381 nM against human TLR9.
Consider `Cc1c(-c2[nH]c3ccc(C4CCN(C5CCOC5)CC4)cc3c2C(C)C)cn2cnnc2c1C` (single isomer, unassigned) [Example 102, 6-(3-isopropyl-5-(1-(tetrahydrofuran-3-yl)piperidin-4-yl)-1H-indol-2-yl)-7,8-dimethyl-[1,2,4]triazolo[4,3-a]pyridine], for which the IC50 against human TLR7 amounted to 3.9 nM; at human TLR8, 8.2 nM; on human TLR9, 5460 nM.
Take `Cc1c(-c2[nH]c3ccc(C4CCN(C5CCOC5)CC4)cc3c2C(C)C)cn2cnnc2c1C` (single isomer, unassigned) [Example 103, 6-(3-isopropyl-5-(1-(tetrahydrofuran-3-yl)piperidin-4-yl)-1H-indol-2-yl)-7,8-dimethyl-[1,2,4]triazolo[4,3-a]pyridine]: the figures for the half-maximal inhibitory concentration (IC50) against human TLR7, at human TLR8 and on human TLR9 were 5.1 nM, 11.7 nM and 10200 nM, respectively.
In the case of `Cc1c(-c2[nH]c3ccc(C4CC(C)N(CCS(C)(=O)=O)C(C)C4)cc3c2C(C)C)cn2cnnc2c1C` (single isomer, unassigned) [Example 110, 6-(5-(2,6-dimethyl-1-(2-(methylsulfonyl)ethyl)piperidin-4-yl)-3-isopropyl-1H-indol-2-yl)-7,8-dimethyl-[1,2,4]triazolo[4,3-a]pyridine], the concentration for half-maximal inhibition (IC50) against human TLR7 was determined as 6.3 nM; against human TLR8 it was 19.4 nM; at human TLR9, 6630 nM.
`Cc1c(-c2[nH]c3ccc(C4CC(C)N(CCS(C)(=O)=O)C(C)C4)cc3c2C(C)C)cn2cnnc2c1C` (single isomer, unassigned) [Example 111, 6-(5-(2,6-dimethyl-1-(2-(methylsulfonyl)ethyl)piperidin-4-yl)-3-isopropyl-1H-indol-2-yl)-7,8-dimethyl-[1,2,4]triazolo[4,3-a]pyridine]: the IC50 against human TLR7 amounted to 23.9 nM; against human TLR8, 113 nM; against human TLR9 it was 19200 nM.
On to `Cc1c(-c2[nH]c3ccc(C4CC(C)N(CC5(C)COC5)C(C)C4)cc3c2C(C)C)cn2cnnc2c1C` (single isomer, unassigned) [Example 113, 6-(5-(2,6-dimethyl-1-((3-methyloxetan-3-yl)methyl)piperidin-4-yl)-3-isopropyl-1H-indol-2-yl)-7,8-dimethyl-[1,2,4]triazolo[4,3-a]pyridine], for which the concentration for half-maximal inhibition (IC50) against human TLR7 amounted to 2.4 nM; against human TLR8, 59.6 nM; at human TLR9, 4830 nM.
As to `Cc1c(-c2[nH]c3ccc(C4CC(C)N(CC5(C)COC5)C(C)C4)cc3c2C(C)C)cn2cnnc2c1C` (single isomer, unassigned) [Example 114, 6-(5-(2,6-dimethyl-1-((3-methyloxetan-3-yl)methyl)piperidin-4-yl)-3-isopropyl-1H-indol-2-yl)-7,8-dimethyl-[1,2,4]triazolo[4,3-a]pyridine], the IC50 against human TLR7 was 13.7 nM; against human TLR8 it was 226 nM; against human TLR9, 7320 nM.
As to `Cc1c(-c2[nH]c3ccc(C4C[C@H]5CC[C@@H](C4)N5)cc3c2C(C)C)cn2cnnc2c1C` (single isomer, unassigned) [Example 116, 6-(5-(8-azabicyclo[3.2.1]octan-3-yl)-3-isopropyl-1H-indol-2-yl)-7,8-dimethyl-[1,2,4]triazolo[4,3-a]pyridine], the 50% inhibitory concentration (IC50) against human TLR7 was 9.9 nM; against human TLR8, 102 nM; against human TLR9, 1110 nM.
Turning to `Cc1c(-c2[nH]c3ccc(C4C[C@H]5CC[C@@H](C4)N5)cc3c2C(C)C)cn2cnnc2c1C` (single isomer, unassigned) [Example 117, 6-(5-(8-azabicyclo[3.2.1]octan-3-yl)-3-isopropyl-1H-indol-2-yl)-7,8-dimethyl-[1,2,4]triazolo[4,3-a]pyridine], the IC50 was determined as 31.6 nM against human TLR7, 494 nM against human TLR8 and 6090 nM against human TLR9.

Source of the values: patent US11130756B2, “[1,2,4]Triazolo[4,3-A]pyridinyl substituted indole compounds” (BRISTOL-MYERS SQUIBB COMPANY, priority 2017, dated 2021).
